Test results as given in the OligoGym collection.
These antisense oligonucleotides have a phosphorothioate backbone; sugars and methylation of C are not fully specified.

How the values were obtained:
Conditions in all cases: ASO
NSMAF = molecular target: NSMAF
PRKCA = molecular target: PRKCA
RAF1 = molecular target: RAF1
ABCB1 = molecular target: ABCB1
Agtr1a (rat) = molecular target: Agtr1a (rat)
AKT2 = molecular target: AKT2
Further: test concentration or dose not given here.

Sequence: GGCTGGGATATTGAATCT
- remaining target (mRNA or protein) (fraction of control) (NSMAF): 0.72

Sequence: TGGAATCAGACACAAGCCGT
- remaining target (mRNA or protein) (fraction of control) (PRKCA): 0.89

Sequence: CGCTCCTCCTCCCCGCGGCG
- remaining target (mRNA or protein) (fraction of control) (RAF1): 0.35

Sequence: TCCGACTTTAGTGGAAAGAC
- remaining target (mRNA or protein) (fraction of control) (ABCB1): 0.9

Sequence: TTCCATGTGCAGCTTTTC
- remaining target (mRNA or protein) (fraction of control) (NSMAF): 0.34

Sequence: CCCGGGAAAACGTCAGCCAT
- remaining target (mRNA or protein) (fraction of control) (PRKCA): 0.52

Sequence: GGTGAGGGAGCGGGAGGCGG
- remaining target (mRNA or protein) (fraction of control) (RAF1): 0.98

Sequence: TGAAGGTGAGCTGGAGCCAT
- remaining target (mRNA or protein) (fraction of control) (RAF1): ≥ 1

Sequence: CCTTTCTATTTTATATGG
- remaining target (mRNA or protein) (fraction of control) (NSMAF): 0.74

Sequence: GGCGTAGAGGTTGAAGCTCA
- remaining target (mRNA or protein) (fraction of control) (Agtr1a (rat)): 0.27

Sequence: GGATTCACTTCCACTGCGGG
- remaining target (mRNA or protein) (fraction of control) (PRKCA): 0.82

Sequence: TAAAGGGTATAGCTGGTGAGA
- remaining target (mRNA or protein) (fraction of control) (Agtr1a (rat)): 0.35

Sequence: TCAAGGCAGGATGCTCTG
- remaining target (mRNA or protein) (fraction of control) (NSMAF): 0.23

Sequence: TTAAAATCCGTTGCACCA
- remaining target (mRNA or protein) (fraction of control) (NSMAF): 0.55

Sequence: GCTCCTGGAAGACAAAATTC
- remaining target (mRNA or protein) (fraction of control) (RAF1): 0.82

Sequence: GTCTCCACAACATCTTCC
- remaining target (mRNA or protein) (fraction of control) (NSMAF): 0.86

Sequence: AGAAGAGTTAAGGGCCATTT
- remaining target (mRNA or protein) (fraction of control) (Agtr1a (rat)): 0.46

Sequence: ATAGCTGGTGAGAATGATAAG
- remaining target (mRNA or protein) (fraction of control) (Agtr1a (rat)): 0.44

Sequence: CATTTTATCTGCCCTAAG
- remaining target (mRNA or protein) (fraction of control) (NSMAF): 0.56

Sequence: TGGTGATGGGCATGGCAGTG
- remaining target (mRNA or protein) (fraction of control) (Agtr1a (rat)): 0.21

Sequence: GTCGAATTCCGAGACTCATA
- remaining target (mRNA or protein) (fraction of control) (Agtr1a (rat)): 0.25

Sequence: GGGCTGGGGAGGTGTTTGTT
- remaining target (mRNA or protein) (fraction of control) (PRKCA): 0.95

Sequence: CTGGCTTCTCCTCCTCCCCT
- remaining target (mRNA or protein) (fraction of control) (RAF1): 0.95

Sequence: GAGCTTGGAAGAGCCGCTACT
- remaining target (mRNA or protein) (fraction of control) (ABCB1): 0.54

Sequence: CCCGACCTCGCGCTCCTTGG
- remaining target (mRNA or protein) (fraction of control) (ABCB1): 0.15

Sequence: GACCTCGCGCTCCTTGGAAC
- remaining target (mRNA or protein) (fraction of control) (ABCB1): 0.17

Sequence: AAAACGTCAGCCATGGTCCC
- remaining target (mRNA or protein) (fraction of control) (PRKCA): 0.39

Sequence: TGTGACTAGAGAAACAAGGC
- remaining target (mRNA or protein) (fraction of control) (RAF1): 0.68

Sequence: TATGACAGTGGCATCTCC
- remaining target (mRNA or protein) (fraction of control) (NSMAF): 0.65

Sequence: CAGCACTGCAAATGGCTTCC
- remaining target (mRNA or protein) (fraction of control) (RAF1): 0.8

Sequence: CCTCCTTCATAGGTCAGG
- remaining target (mRNA or protein) (fraction of control) (NSMAF): 0.74

Sequence: GCCGAGTGCCTTGCCTGGAA
- remaining target (mRNA or protein) (fraction of control) (RAF1): 0.98

Sequence: GGTCGATGCTGAGACACGTG
- remaining target (mRNA or protein) (fraction of control) (Agtr1a (rat)): 0.49

Sequence: AAGGGTATAGCTGGTGAGAAT
- remaining target (mRNA or protein) (fraction of control) (Agtr1a (rat)): 0.39

Sequence: TTCTCGCCCGCTCCTCCTCC
- remaining target (mRNA or protein) (fraction of control) (RAF1): 0.65

Sequence: ATTTTCAGGCCTCCATATGG
- remaining target (mRNA or protein) (fraction of control) (PRKCA): 0.82

Sequence: GTTCTCGCTGGTGAGTTTCA
- remaining target (mRNA or protein) (fraction of control) (PRKCA): 0.52

Sequence: ATGCGGTCGATGCTGAGACA
- remaining target (mRNA or protein) (fraction of control) (Agtr1a (rat)): 0.75

Sequence: CTCTTCTGGAGAAAGTCC
- remaining target (mRNA or protein) (fraction of control) (NSMAF): 0.67

Sequence: GGTGCAAAGTCAACTAGAAG
- remaining target (mRNA or protein) (fraction of control) (RAF1): 0.88

Sequence: ACACGTGTGAAGGAACACAC
- remaining target (mRNA or protein) (fraction of control) (Agtr1a (rat)): 0.51

Sequence: GCCGCCCCAACGTCCTGTCG
- remaining target (mRNA or protein) (fraction of control) (RAF1): 0.42

Sequence: TGTCAGTAGTCTCTCCAG
- remaining target (mRNA or protein) (fraction of control) (NSMAF): 0.25

Sequence: ACTCGTGAAGGTGTTCAG
- remaining target (mRNA or protein) (fraction of control) (NSMAF): 0.34

Sequence: TGTTGAACATTCTATCTG
- remaining target (mRNA or protein) (fraction of control) (NSMAF): 0.79

Sequence: AATCTCTCCTTGGAGTAG
- remaining target (mRNA or protein) (fraction of control) (NSMAF): 0.61

Sequence: TCCTCCTCCCCGCGGCGGGT
- remaining target (mRNA or protein) (fraction of control) (RAF1): 0.95

Sequence: TTCAGGCAGTTGTTAAAATA
- remaining target (mRNA or protein) (fraction of control) (Agtr1a (rat)): 0.86

Sequence: TCTGGCGCTGCACCACTCTC
- remaining target (mRNA or protein) (fraction of control) (RAF1): 0.25

Sequence: TGGTCACTTTAGCCCGTG
- remaining target (mRNA or protein) (fraction of control) (AKT2): ≥ 1

Sequence: ATTCTTAAACCTGAGGGAGC
- remaining target (mRNA or protein) (fraction of control) (RAF1): ≥ 1

Sequence: TGGAAACACAGGGTACTG
- remaining target (mRNA or protein) (fraction of control) (NSMAF): 0.37

Sequence: GAGACCCTGAACAGTTGATC
- remaining target (mRNA or protein) (fraction of control) (PRKCA): 0.61

Sequence: GTGAGCGACTTCATCCTT
- remaining target (mRNA or protein) (fraction of control) (AKT2): 0.25

Sequence: CAGCAGAAGAGTTAAGGGCC
- remaining target (mRNA or protein) (fraction of control) (Agtr1a (rat)): 0.37

Sequence: CCCTGTATGTGCTCCATTGA
- remaining target (mRNA or protein) (fraction of control) (RAF1): 0.38

Sequence: GCAGAAGAGTTAAGGGCCAT
- remaining target (mRNA or protein) (fraction of control) (Agtr1a (rat)): 0.32

Sequence: TTCGGCGGCAGCTTCTCGCC
- remaining target (mRNA or protein) (fraction of control) (RAF1): 0.37

Sequence: GGATGCGGTCGATGCTGAGA
- remaining target (mRNA or protein) (fraction of control) (Agtr1a (rat)): 0.39

Sequence: CTCGCCCGCTCCTCCTCCCC
- remaining target (mRNA or protein) (fraction of control) (RAF1): ≥ 1

Sequence: CTGAGAGGGCTGAGATGCGG
- remaining target (mRNA or protein) (fraction of control) (RAF1): ≥ 1

Sequence: CTCCTTGGCATCGCTGGG
- remaining target (mRNA or protein) (fraction of control) (AKT2): 0.29

Sequence: AGCGTCGAATTCCGAGACTC
- remaining target (mRNA or protein) (fraction of control) (Agtr1a (rat)): 0.29

Sequence: ATGACAAAGGTGTTGGGT
- remaining target (mRNA or protein) (fraction of control) (AKT2): 0.29

Sequence: GTGATTCCAGTAACTGCT
- remaining target (mRNA or protein) (fraction of control) (NSMAF): 0.36

Sequence: GATAATGTTCTTGGTTGTAA
- remaining target (mRNA or protein) (fraction of control) (PRKCA): 0.85

Sequence: GTCTTGATGTATTCACCA
- remaining target (mRNA or protein) (fraction of control) (AKT2): 0.52

Sequence: CGAGACTGCAAAATAGCT
- remaining target (mRNA or protein) (fraction of control) (NSMAF): 0.32
